Patent US10167282B2, “1-(5-tert-butyl-2-aryl-pyrazol-3-yl)-3-[2-fluoro-4-[(3-oxo-4H-pyrido [2, 3-B]pyrazin- 8-yl)oxy]phenyl]urea derivatives as RAF inhibitors for the treatment of cancer” (CANCER RESEARCH TECHNOLOGY LIMITED, priority 2013, dated 2019)
Where two headings read alike, the source gives them in different places.

What was measured:
V600EBRAF = experiment: DELFIA kinase assay (BRAF V600E Kinase Assay); type: biochemical, human; details: for IC50: 100 μM ATP
Protocol: Compounds were assessed in a kinase assay performed according to the following protocol.
^V600EBRAF was generated by infection of SF9 insect cells cultured in SF-900 II medium (Invitrogen, Paisley, Scotland) with a baculovirus containing full-length human BRAF with an N-terminal histidine tag and purified by nickel-agarose affinity chromatography.
Full-length rabbit MEK1 protein was expressed with a GST tag at the N-terminus and a C-terminal histidine tag in Escherichia coli JM109 bacteria and purified by nickel-agarose affinity chromatography.
Combine 4950 μL of DKB and 50 μL of 2.5 mg/mL GST-MEK stock obtained as described above (to give […] of MEK per 40 μL). Then add 22.5 μL of BRAF stock obtained as described above to give ˜0.2 μL of BRAF per 40 μL.
100 mM ATP stock in distilled water, dilute to 500 μM to give 100 μM final concentration in assay.
3. Plate out 40 μL of DKB1 for all inhibitors (test compounds), DMSO control, and optionally other control compounds.
5. Add inhibitors (test compounds) at 0.5 μL per well according to desired plate layout.
8. Pre-incubate with test compounds for 10 minutes at room temperature with shaking.
9. Add 10 μL of 500 μM ATP stock, in DKB, to give 100 μM assay concentration.
10. Seal plates with TopSeal and incubate at room temperature with shaking for 45 minutes.
12. Add 50 μL per well of antibody mix and incubate for 1 hour at room temperature with shaking.
14. Add 100 μL DELFIA enhancement solution per well, cover in foil, and incubate at room temperature for 30 minutes with shaking.
15. Read on Victor plate reader (Perkin-Elmer, Turku, Finland) using Europium protocol.
Values for the blank (Empty Vector) are subtracted from all values. The DMSO controls are set as 100% activity and assay points (the response) are calculated as a percentage of the DMSO control. Data are plotted using Graphpad Prism software and a non-linear regression line is calculated using a variable slope sigmoidal dose-response equation: Y=Bottom+[Top−Bottom]/[1+10^((Log EC50−X)*HillSlope)] where X is the logarithm of concentration and Y is the response. The IC50 generated by this procedure is the concentration of the drug that produces a percentage control fluorescence value midway between the saturation, and zero-effect plateaus. Three independent assays are usually performed and the mean IC50 is reported.

hERG = type: cell-based, human; details: read-out: hERG Inhibition IC50
Protocol: Studies were conducted at Cyprotex Discovery in Cheshire, UK according to the contractor's protocol. The studies were performed on an IonWorks™ HT instrument (Molecular Devices Corporation), which automatically performs electrophysiology measurements in […] single cells simultaneously in a specialised 384-well plate (PatchPlate™). The cells used were Chinese hamster ovary (CHO) cells stably transfected with hERG (cell-line obtained from Cytomyx, UK). A single-cell suspension was prepared in extracellular solution (Dulbecco's phosphate buffered saline with calcium and magnesium pH 7-7.2) and aliquots added automatically to each well of a PatchPlate™. The cells were then positioned over a small hole at the bottom of each well by applying a vacuum beneath the plate to form an electrical seal. The vacuum was applied through a single compartment common to all wells which was filled with intracellular solution (buffered to pH 7.2 with HEPES). The resistance of each seal was measured via a common ground-electrode in the intracellular compartment and individual electrodes placed into each of the upper wells.
Electrical access to the cell was then achieved by circulating a perforating agent, amphotericin, underneath the PatchPlate™ and then measuring the pre-compound hERG current. An electrode was positioned in the extracellular compartment and a holding potential of −80 mV applied for 15 seconds. The hERG channels were then activated by applying a depolarising step to +40 mV for 5 seconds and then clamped at −50 mV for 4 seconds to elicit the hERG tail current, before returning to −80 mV for 0.3 seconds. […]. Quinidine, an established hERG inhibitor, was included as an experimental control. […]. The test compound was left in contact with the cells for 300 seconds before recording currents using the same voltage-step protocol as in the pre-compound scan. Each concentration was tested in 4 replicate wells.
Post-compound currents were expressed as a percentage of pre-compound currents and plotted against concentration for each compound. Where concentration-dependent inhibition was observed, the data were fitted to the following equation: y=(ymax−ymin)/(1+(x/x50)^s)+ymin.
y=(post-compound current/pre-compound current)×100;
x50=concentration required to inhibit current by 50% (IC50); and […]

[1] = system: mice with collagen-induced arthritis; details: cited from earlier work
Lck = experiment: Z'-LYTE biochemical kinase assay; details: ATP 100 μM
Protocol: (§1) Activity Against Other Targets
(§2) Studies were conducted at Life Technologies in Paisley according to the contractor's protocol. TBAP-01 was dissolved in DMSO and assayed at final concentrations ranging from 10 μM to 0.5 nM in 1% DMSO, in the presence of an ATP concentration of 100 μM. IC50 values for test compounds were determined using the Z'-LYTE® biochemical assay employing a fluorescence-based, coupled-enzyme format based on the differential sensitivity of phosphorylated and non-phosphorylated peptides to proteolytic cleavage.

PDGFRβ = experiment: Z'-LYTE biochemical kinase assay; details: ATP 100 μM
Protocol: as §1, §2

p38α = experiment: Z'-LYTE biochemical kinase assay; details: ATP 100 μM
Protocol: as §1, §2

PDGFRα = experiment: Z'-LYTE biochemical kinase assay; details: ATP 100 μM
Protocol: as §1, §2

KDR = experiment: Z'-LYTE biochemical kinase assay; details: ATP 100 μM
Protocol: as §1, §2

EGFR = experiment: Z'-LYTE biochemical kinase assay; details: ATP 100 μM
Protocol: as §1, §2

p38γ = experiment: Z'-LYTE biochemical kinase assay; details: ATP 100 μM
Protocol: as §1, §2

Src = experiment: Z'-LYTE biochemical kinase assay; details: ATP 100 μM
Protocol: as §1, §2

FGFR1 = experiment: Z'-LYTE biochemical kinase assay; details: ATP 100 μM
Protocol: as §1, §2

MET = experiment: Z'-LYTE biochemical kinase assay; details: ATP 100 μM
Protocol: as §1, §2

CRAF = experiment: Z'-LYTE biochemical kinase assay; details: ATP 100 μM
Protocol: as §1, §2

TESK1 = experiment: Kinase profiling, radioactive (33P-ATP) filter-binding assay; type: biochemical; details: at 1 μM
Protocol: as §1
(§3) Additional studies were conducted at The International Centre for Kinase Profiling in Dundee according to the contractor's protocol. TBAP-01 was dissolved in DMSO and assayed at a final concentration of 1 μM in 2% DMSO against 131 kinases. The assays were carried out using a radioactive (^33P-ATP) filter-binding assay.

YES1 = experiment: as above; type: biochemical; details: at 1 μM
Protocol: as §1, §3

MINK1 = experiment: as above; type: biochemical; details: at 1 μM
Protocol: as §1, §3

ABL = experiment: as above; type: biochemical; details: at 1 μM
Protocol: as §1, §3

Tie-2 = experiment: as above; type: biochemical; details: at 1 μM
Protocol: as §1, §3

TrkA = experiment: as above; type: biochemical; details: at 1 μM
Protocol: as §1, §3

IGF1Rβ = experiment: as above; type: biochemical; details: not stated whether inhibition or remaining activity
Protocol: as §1, §3

TAK1 = experiment: as above; type: biochemical; details: at 1 μM
Protocol: as §1, §3

DDR2 = experiment: as above; type: biochemical; details: at 1 μM
Protocol: as §1, §3

[2] = system: mutant BRAF WM266.4 cells; experiment: Cell based phospho-ERK assay; details: Homo sapiens, WM 266-4, 6 h, read-out: Cell-Based Phospho-ERK Assay IC50
Protocol: Cell Based Phospho-ERK Assay (Mutant BRAF WM266.4 Cells)
Compounds were assessed using a cell-based assay which was performed according to the following protocol.
Plate out 16,000 mutant BRAF WM266.4 cells/well in 99 μL medium in a 96-well plate.
Add 1 μL test compound to the cells (total 1 μL solution).
Incubate the cells with test compound for 6 hours at 37° C.
Read Europium Time Resolved Fluorescence in Victor2 plate reader (Perkin-Elmer, Turku, Finland).
Note that Europium counts are normalised for protein levels by dividing counts by absorbance.
Values for the blank (no cells) are subtracted from all values. The DMSO controls are set as 100% activity and assay points (the response) are calculated as a percentage of the DMSO control. Data are plotted using Graphpad Prism software and a non-linear regression line is calculated using a variable slope sigmoidal dose-response equation: Y=Bottom+[Top−Bottom]/[1+10^((Log EC50−X)*HillSlope)] where X is the logarithm of concentration and Y is the response). The IC50 generated by this procedure is the concentration of the drug that produces a percentage control fluorescence value midway between the saturation, and zero-effect plateaus. Three independent assays are usually performed and the mean IC50 is reported.

[3] = CHO cells stably transfected with hERG, tail current

Molecule `Cn1c(=O)[nH]c2nccc(Oc3ccc(NC(=O)Nc4cc(C(C)(C)C)nn4-c4cccc(F)c4)c(F)c3)c21` [AA-04, reference compound] has an IC50 (V600EBRAF) of 650 nM.

For `Cc1ccc(-n2nc(C(C)(C)C)cc2NC(=O)Nc2ccc(Oc3ccnc4[nH]c(=O)cnc34)cc2F)cc1` [AA-018, reference compound], the IC50 (V600EBRAF) was 64 nM and the IC50 (hERG; [3]) was over 100000 nM.

Molecule `CC(C)(C)c1cc(NC(=O)Nc2ccc(Oc3ccnc4[nH]c(=O)cnc34)cc2F)n(-c2ccccc2)n1` [AA-019, reference compound] has an IC50 (V600EBRAF) of 55 nM and an IC50 (hERG; [3]) of over 100000 nM.

Molecule `COc1ccc(-n2nc(C(C)(C)C)cc2NC(=O)Nc2ccc(Oc3ccnc4[nH]c(=O)cnc34)cc2F)cn1` [AA-062, reference compound] has an IC50 (V600EBRAF) of 79 nM and an IC50 (hERG; [3]) of over 100000 nM.

In the case of `Cc1ccc(-n2nc(C(C)(C)C)cc2NC(=O)Nc2ccc(Oc3ccnc4[nH]c(=O)cnc34)cc2F)cn1` [AA-084, reference compound], the IC50 (V600EBRAF) is reported as 710 nM and the IC50 (hERG; [3]) is reported as 53000 nM.

In the case of `Clc1ccc(Nc2nnc(Cc3ccncc3)c3ccccc23)cc1` [PTK787/ZK222584], the “inhibition of knee swelling” value [1] is listed as 40% and the “inhibition of severity scores” value [1] is listed as 51%.

`CC(C)(C)c1cc(NC(=O)Nc2ccc(Oc3ccnc4[nH]c(=O)cnc34)cc2F)n(-c2cccc(F)c2)n1` [TBAP-01] showed an IC50 (Lck) of 19 nM, an IC50 (PDGFRβ) of 740 nM and an IC50 (p38α) of 470 nM. The IC50 (PDGFRα) was 800 nM, the IC50 (KDR) was 120 nM and the IC50 (EGFR) was 1900 nM. It also gave an IC50 (p38γ) of 220 nM, an IC50 (Src) of 27 nM and an IC50 (FGFR1) of 470 nM. The IC50 (MET) was 1400 nM, the IC50 (CRAF) was 33 nM and the “fold more potent than Compound AA-04 on the BRAF kinase assay” value (V600EBRAF) was 10 fold. The IC50 (V600EBRAF) was 62 nM, the “fold more potent than Compound AA-084 on the BRAF kinase assay” value (V600EBRAF; vs AA-084) was 11 fold and the TESK1 activity remaining (TESK1) was 5% activity remaining at 1 μM. The YES1 activity remaining (YES1) was 6% activity remaining at 1 μM, the MINK1 activity remaining (MINK1) was 4% activity remaining at 1 μM and the ABL activity remaining (ABL) was 4% activity remaining at 1 μM. The Tie-2 activity remaining (Tie-2) was 3% activity remaining at 1 μM, the TrkA activity remaining (TrkA) was 6% activity remaining at 1 μM and the “IGF1Rβ % @ 1 μM” value (IGF1Rβ) was 78% @ 1. The TAK1 activity remaining (TAK1) was 6% activity remaining at 1 μM, the DDR2 activity remaining (DDR2) was 3% activity remaining at 1 μM and the IC50 (hERG; [3]) was over 100000 nM.

`Cc1cccc(-n2nc(C(C)(C)C)cc2NC(=O)Nc2ccc(Oc3ccnc4[nH]c(=O)cnc34)cc2F)c1` [TBAP-02] showed an IC50 (V600EBRAF) of 99 nM and an IC50 (hERG) of 65000 nM.

`CC(C)(C)c1cc(NC(=O)Nc2ccc(Oc3ccnc4[nH]c(=O)cnc34)cc2F)n(-c2cccc(C(F)(F)F)c2)n1` [TBAP-03] gave an IC50 (V600EBRAF) of 130 nM and an IC50 (hERG; [3]) of over 100000 nM.

Molecule `COc1cccc(-n2nc(C(C)(C)C)cc2NC(=O)Nc2ccc(Oc3ccnc4[nH]c(=O)cnc34)cc2F)c1` [TBAP-04, 1-(3-tert-butyl-1-(3-methoxyphenyl)-1H-pyrazol-5-yl)-3-(2-fluoro-4-(3-oxo-3,4-dihydropyrido[3,2-b]pyrazin-8-yloxy)phenyl)urea] has an IC50 (V600EBRAF) of 47 nM and an IC50 (hERG; [3]) of over 100000 nM.

Molecule `CC(C)(C)c1cc(NC(=O)Nc2ccc(Oc3ccnc4[nH]c(=O)cnc34)cc2F)n(-c2ccnc(O)c2)n1` [TBAP-05, 1-(3-tert-butyl-1-(2-oxo-1,2-dihydropyridin-4-yl)-1H-pyrazol-5-yl)-3-(2-fluoro-4-(3-oxo-3,4-dihydropyrido[3,2-b]pyrazin-8-yloxy)phenyl)urea] has an IC50 (V600EBRAF) of 390 nM and an IC50 [2] of 450 nM.
